Reference: US7906491B2 (Univisitair Medisch Centrum Utrecht, priority 2002, dated 2011)

Legend:
[1] = tested on: PKAI; experiment: Relative affinity for PKAI (cAMP = 1), in vitro; type: binding; details: relative to cAMP = 1
[2] = tested on: Ovcar3 cells; experiment: Adhesion of Ovcar3 cells to poly-L-lysine (integrin-independent); type: cell-based; details: FIG. 8
Description: Upper panel: a βl integrin-blocking peptide containing the RGD sequence present in fibronectin inhibits 8-pCPT-2′-O-Me-cAMP-induced cell adhesion. Ovcar3 cells were pre-treated for 20 minutes with RGD-peptide (100 μM) where indicated, and seeded in wells with or without 8-pCPT-2′-O-Me-cAMP. Cells were allowed to adhere for 1 h. […] Ovcar3 cells were seeded onto poly-L-lysine-coated plates. At various time points, adherent cells were quantified.
24-well plates were coated overnight with 2 μg/ml fibronectin (Sigma, St. Louis, Mo., USA) in sodium bicarbonate buffer (Sigma, St. Louis, Mo., USA). […] Cells were centrifuged, counted and resuspended at 3×10^5 cells/ml in serum-free RPMI with 0.5% BSA. […] Adherent cells were lysed in luciferase lysis buffer (15% glycerol, 25 mM Tris-phosphate pH 7.8, 1% Triton X-100, 8 mM MgCl2, 1 mM DTT) at 4° C. for 30 min and units of luciferase activity were quantified with addition of equal volume of luciferase assay buffer (25 mM Tris-phosphate pH 7.8, 8 MM MgCl2, 1 mM DTT, 1 mM ATP pH 7, 1 mM luciferin) using a luminometer (Lumat LB9507; Berthold Technologies, Belgium). […] Specific adhesion (%) was determined (counts in cells bound/counts in total input×100) and plotted either directly or relative to the basal adhesion of HA vector-transfected cells. […]

[3] = target: T1, Epac (Homo sapiens, UniProt O95398); experiment: Relative affinity for Epac (cAMP = 1), in vitro; type: binding; details: relative to cAMP = 1
T1 sequence (O95398 1-923): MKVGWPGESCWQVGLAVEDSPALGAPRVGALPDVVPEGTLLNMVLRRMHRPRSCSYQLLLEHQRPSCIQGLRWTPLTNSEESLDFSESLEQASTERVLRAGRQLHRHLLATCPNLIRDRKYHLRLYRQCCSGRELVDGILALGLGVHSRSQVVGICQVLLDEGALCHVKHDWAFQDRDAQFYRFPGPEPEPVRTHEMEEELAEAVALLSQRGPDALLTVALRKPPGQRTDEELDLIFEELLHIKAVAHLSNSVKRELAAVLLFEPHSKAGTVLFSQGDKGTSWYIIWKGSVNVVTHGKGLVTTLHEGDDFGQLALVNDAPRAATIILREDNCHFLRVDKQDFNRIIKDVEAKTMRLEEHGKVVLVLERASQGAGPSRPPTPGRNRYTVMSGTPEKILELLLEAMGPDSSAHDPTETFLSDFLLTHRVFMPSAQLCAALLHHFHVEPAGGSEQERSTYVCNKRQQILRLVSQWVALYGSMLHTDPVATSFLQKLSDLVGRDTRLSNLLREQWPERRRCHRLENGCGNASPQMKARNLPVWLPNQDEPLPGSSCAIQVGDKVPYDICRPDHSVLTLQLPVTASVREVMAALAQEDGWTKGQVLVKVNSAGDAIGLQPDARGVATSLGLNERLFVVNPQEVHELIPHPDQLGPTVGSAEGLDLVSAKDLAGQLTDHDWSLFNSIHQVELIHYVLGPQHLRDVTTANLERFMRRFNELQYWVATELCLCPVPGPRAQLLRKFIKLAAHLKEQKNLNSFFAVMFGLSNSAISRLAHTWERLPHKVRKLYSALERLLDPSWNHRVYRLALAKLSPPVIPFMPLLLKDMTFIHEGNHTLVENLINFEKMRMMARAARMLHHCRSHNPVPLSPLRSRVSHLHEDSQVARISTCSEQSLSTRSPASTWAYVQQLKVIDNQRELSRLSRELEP

## CO[C@@H]1[C@@H]2OP(=O)(O)OC[C@H]2O[C@H]1n1c(Sc2ccc(Cl)cc2)nc2c(N)ncnc21 [Compound I-007, 8-(4-chloro-phenylthio)-2′-O-methyladenosine-3′,5′-cyclic monophosphate]
[1]
  Relative affinity CAMP = 1 PKAI: 0.009
[2]
  integrin-independent adhesion to poly-L-lysine: did not increase
[3]
  Relative affinity CAMP = 1 Epac: 4.6
